Source: ChEMBL document CHEMBL3244019, “Chemical and biological studies of 1-(2,5-dihydroxy-4-methylphenyl)-2-aminopropane, an analogue of 6-hydroxydopamine” (J Med Chem, 1979)

How the values were obtained:
[1] = Half life of the compound assessed as compound auto-oxidation in 0.1 M buffer at 37 uM at pH 7.4; format: physicochemical
[2] = Half life in rabbit liver homogenates with 13 ug of protein per ml assessed as compound auto-oxidation at 37 uM; format: ADME, tissue-based, Oryctolagus cuniculus; details: liver homogenate
[3] = Half life of the compound in 0.1 M metal-free buffer assessed as compound auto-oxidation at 37 uM at pH 7.4; format: physicochemical
[4] = Half life in rabbit liver microsomes assessed as compound auto-oxidation at 37 uM; format: ADME, Oryctolagus cuniculus
[5] = Metabolic stability in rabbit liver homogenates with 90 ug of protein per ml assessed as compound auto-oxidation at 37 uM after 15 mins; format: ADME, tissue-based, Oryctolagus cuniculus; details: tissue homogenate, 0.25 h
Albumin [6] = biological target: T1, Albumin (Bos taurus, UniProt P02769); test: Covalent binding affinity to bovine serum albumin at 4.8 mM after 1 hr by combustion-LSC method in presence of DDQ relative to control; format: ADME; details: cattle, 4800 µM
T1 sequence (P02769 whole entry): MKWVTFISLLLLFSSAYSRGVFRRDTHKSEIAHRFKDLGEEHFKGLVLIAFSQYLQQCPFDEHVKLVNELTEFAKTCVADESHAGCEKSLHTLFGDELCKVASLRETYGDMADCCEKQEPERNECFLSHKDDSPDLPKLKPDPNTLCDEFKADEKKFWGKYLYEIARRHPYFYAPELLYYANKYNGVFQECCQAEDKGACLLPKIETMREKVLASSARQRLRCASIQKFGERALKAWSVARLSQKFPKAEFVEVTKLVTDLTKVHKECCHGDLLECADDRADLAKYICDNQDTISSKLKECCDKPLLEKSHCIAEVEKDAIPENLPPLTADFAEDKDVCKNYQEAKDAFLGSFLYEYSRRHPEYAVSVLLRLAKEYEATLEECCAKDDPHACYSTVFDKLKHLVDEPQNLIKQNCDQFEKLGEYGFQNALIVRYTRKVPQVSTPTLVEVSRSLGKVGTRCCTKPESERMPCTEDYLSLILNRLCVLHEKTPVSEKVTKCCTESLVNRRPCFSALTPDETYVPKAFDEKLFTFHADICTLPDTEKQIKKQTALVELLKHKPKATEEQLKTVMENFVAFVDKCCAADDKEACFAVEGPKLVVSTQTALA

Albumin [7] = biological target: T1, Albumin; test: Covalent binding affinity to bovine serum albumin assessed per mol of BSA at 4.8 mM after 1 hr by combustion-LSC method; format: ADME; details: cattle, 4800 µM
[8] = Covalent binding in rabbit liver microsomal macromolecules at 60 uM after 15 mins in presence of NADPH; format: ADME, Oryctolagus cuniculus; details: microsomes, 0.25 h
Brain = test: Drug uptake in Sprague-Dawley rat brain at 6.6 mg, iv after 2 hrs; format: ADME, organism-based; details: in vivo

Q: What does the source list for `Cc1cc(O)c(CC(C)N)cc1O` (centres undefined)?
A: half-life at 37 µM [1]: 10 min; half-life at 37 µM [2]: 70 min; half-life at 37 µM [3]: 180 min; half-life at 37 µM [4]: 100 min; Stability [5]: Stable

Q: With `[3H]C([3H])([3H])C(N)C([3H])([3H])c1cc(O)c(C)cc1O` (centres undefined) as the molecule, how does the “fold change (FC)” value (Albumin [6]) read?
A: Its value is 2.

Q: And the PB (Albumin [7])?
A: The PB was 0.12 equiv.

Q: For `[3H]C([3H])([3H])C(N)C([3H])([3H])c1cc(OC)c(C)cc1OC` (centres undefined), which Activity [8] is on record?
A: Its Activity is 0.2%.

Q: For `[3H]C1C2=CC(=O)C(C)=CC2=NC1C` (centres undefined), which Drug uptake (Brain) is on record?
A: Its Drug uptake is 0.05%.
